Source: patent US10941384B2, “Compositions and methods for promoting the generation of endocrine cells” (President and Fellows of Harvard College, priority 2013, dated 2021)

Legend:
[1] = tested on: NGN3 mRNA (HUES 8-derived pancreatic progenitor cells); assay: qRT-PCR of NGN3 expression in chemically-treated populations; type: cell-based, human; conditions: quantitative RT-PCR, HUES 8-derived cells
Excerpt: [drawing 11] was selected for follow up studies due to the high efficacy and low toxicity (FIG. 1C).

[2] = tested on: human c-peptide in serum of SCID-Beige mice; assay: Kidney capsule transplantation of treated cells, glucose-stimulated human c-peptide ELISA; type: in vivo; conditions: treated cells under kidney capsule of SCID-beige mice, 12 weeks, 30 mins after glucose
Excerpt: FIGS. 2A-2B show the characterization of cells derived by PKC inhibitor treatment. […] Cells were stained with insulin, c-peptide, glucagon, UCN3, PDX1 and NKX6-1 antibodies. All insulin-expressing cells express c-peptide. Few insulin-expressing cells express NKX6-1 or UCN3, markers of mature human β cells. Many insulin-expressing cells co-express another endocrine marker glucagon. Scale bars are 100 μm. […] Scheme beginning with cells that have been treated with hit chemicals, e.g., PKC inhibitors, comprises a population containing many NGN3-expressing cells. The HUES 8-derived pancreatic progenitor cells treated with DMSO were used as negative controls. […] 12 weeks later, the mouse sera collected at fasting condition and at 30 mins after glucose stimulation were analyzed using ELISA to measure human c-peptide expression. […]
Kidney capsule implantation and tissue preparation. […] The c-peptide levels in mouse sera were measured using the human c-peptide ELISA kit (Alpco Diagnostics or Millipore).
The inventors next investigated the developmental potential of cell populations enriched for NGN3^+ cells that were induced by PKC inhibition. […] More c-peptide (a byproduct of insulin biosynthesis)-expressing cells were detected in the derivatives of PKCβ inhibitor treated cells (12.5 5.8%) than the derivatives of control cells (DMSO-treated, 1.2 1.2%; FIG. 2b). […]

[3] = tested on: Human NGN3 (HUES 8-pancreatic progenitor population); assay: High-content screen 1 and efficacy curve: NGN3+ cells by immunofluorescence (Cellomics); type: cell-based
Description: hESC culture and differentiation. Protocol 1. HUES 8 and H1 cells are routinely cultured on irradiated MEF feeder cells in KnockOut DMEM (Invitrogen) supplemented with 10% (v/v) KnockOut serum replacement (Invitrogen), 0.5% (v/v) human plasma fraction (Talecris Biotech), 2 mM L-glutamine (Invitrogen), 1.1 mM 2-mercaptoethanol (Invitrogen), 1 mM nonessential amino acids (Invitrogen), 1× penicillin/streptomycin (PS, Invitrogen) and 10 ng/ml bovine FGF (Invitrogen). Cells are passaged at the ratio of 1:6 every 5 d by using 0.05% trypsin (Invitrogen). To generate the HUES-pancreatic progenitor population, HUES cells were cultured on MEF feeder cells until 80-90% confluent, then treated with 25 ng/ml Wnt3a (R&D systems)+100 ng/ml activin A (R&D systems) in RPMI (Invitrogen) supplemented with 1×L-glutamine and 1×PS for 1 d, and then 100 ng/ml activin A in RPMI supplemented with 1×L-glutamine, 1×PS and 0.2% (v/v) fetal bovine serum (FBS, Invitrogen). The medium was changed 2 d later to 50 ng/ml/FGF7 (R&D systems) in RPMI supplemented with 1×L-glutamine, 1×PS and 2% (v/v) FBS, and maintained for an additional 2 d. Cells were then transferred to 100 ng/ml Noggin (R&D systems)+0.25 μM SANT-1 (Sigma)+2 μM retinoic acid (Sigma) in DMEM supplemented with 1×L-glutamine, 1×PS and 1×B27 (Invitrogen) and cultured for an 4 d, followed by treatment with 100 ng/ml Noggin (R&D systems)+1 μM ALK5 inhibitor (Enzo)+100 nM PDBu (Sigma) in DMEM supplemented with 1×L-glutamine, 1×PS and 1×B27 (Invitrogen) and cultured for an additional 4 d. All HUES-pancreatic progenitor cells were derived using the same protocol as described above. The percentage and number of PDX1^+ cells and NGN3^+ cells were analyzed with the Cellomics high content screening system (Thermo Scientific). PKCβ inhibitor was purchased from Calbiochem.
High-content screen 1. […]
Screen 1: Generation of efficacy curve. […] Six days later, the cells were stained with NGN3 antibody and the plates were analyzed with the Cellomics high content screening system (Thermo Scientific). […]

pancreatic progenitors = conditions: previously reported, US2011/0070645; cited from earlier work

EC50 ([3]; Homo sapiens, 144 h, HUES 8-pancreatic progenitor population, six days, FIG. 1D, read-out: EC50, total number of NGN3+ cells) | Compound | expression of NGN3 mRNA compared to DMSO controls [1] | human c-peptide levels in the serum, glucose injection versus fasting [2] | percentage of NGN3+ cells, fold higher than the DMSO-treated controls ([3]; HUES 8, at maximum) | toxicity in screen 1 ([3]; reason for selection for follow up) | generation of pancreatic progenitors (pancreatic progenitors)
7.8 µM | O=C1NC(=O)C(c2cn(CCCn3ccnc3)c3ccccc23)=C1Nc1ccccc1 [PKCβ inhibitor] | higher expression of NGN3 mRNA | significantly higher upon glucose injection than during fasting | ~7 fold | low toxicity | –
– | (−)-Indolactam V | – | – | – | – | promotes the generation of pancreatic progenitors
